Patent US20260166033A1, “USE OF A FGFR3 TYROSINE KINASE INHIBITOR FOR THE TREATMENT OF FGFR-RELATED BONE REPAIR AND BONE FORMATION IMPAIRMENTS” (INSTITUT NATIONAL DE LA SANTÉ ET DE LA RECHERCHE MÉDICALE, priority 2021, published 2026)

How the values were obtained:
[1] = tested on: mouse model of ACH (Fgfr3Y367C/+); conditions: Fgfr3Y367C/+ mice; Komla Ebri et al 2016, Biosse Duplan et al 2016; cited from earlier work
[2] = tested on: HCH mice (Fgfr3^N534K/+); experiment: Non-stabilized mandibular fracture bone repair in the HCH mouse model, microCT scans and repair grade; type: in vivo
Description: Mandibular bone repair was studied in the HCH mouse model (Fgfr3^N534K/+). The experiments were performed in adult animals at 6 weeks of age, and mice were euthanized at 4 key points: during bone repair (10, 14, 21 days post fracture), and at the end of the normal bone healing process i.e. at 28 days post fracture.
Vertical mandibular fractures were performed in the ascending ramus region in Fgfr3^N534K/+ and Fgfr3^+/+ mice. This is a non-stabilized mandibular fracture protocol allowing to analyze the endochondral bone repair process.
Four batches (n=100) of Fgfr3^N534K/+ and Fgfr3^+/+ mandible fractures corresponding to different key stages of repair were studied (day 10, day 14, day 21, day 28). Using collagen type II (proliferative cartilage), type X (hypertrophic cartilage) and type I (bone) immunolabelling, we observed that the endochondral process is disturbed, we noted a delayed cartilage resorption, a reduction in the size of hypertrophic chondrocytes area and a defect in bone formation within the repair callus in Fgfr3^N534K/+ compared to Fgfr3^+/+. […] We observed the presence of pseudarthrosis (fibrosis in the callus) in Fgfr3^N534K/+ mice whereas we observed 100% of bone in Fgfr3^+/+ callus. Considering the quality of the newly formed bone at day 28, we defined four grades of repair and classified the mice according to their repair grade (from 1 to 4). The defective repair is significant in Fgfr3^N534K/+ compared to Fgfr3^+/+ (FIG. 1C).
HCH mice (Fgfr3^N534K/+) were treated with infigratinib (subcutaneous injections at 4 mg/kg, 3 times per week) from day 0 (facture of the mandible) to day 14 or day 28. The bone repair analyses were evaluated by microCT scans at day 14 and day 28 post fracture (FIGS. 1A and 1B). We quantified BV/TV (Bone Volume/Total Volume) and Callus volume (ratio TV (total volume) of the callus/TV of the contralateral ascending ramus region).

[3] = day 28 grade repair, treated Fgfr3^N534K/+ mice

## CCN1CCN(c2ccc(Nc3cc(N(C)C(=O)Nc4c(Cl)c(OC)cc(OC)c4Cl)ncn3)cc2)CC1 [BGJ398, 3-(2,6-dichloro-3,5-dimethoxyphenyl)-1-[6-[4-(4-ethylpiperazin-1-yl)anilino]pyrimidin-4-yl]-1-methylurea]
[1]
  Effect on affected skeletal elements (long bones, vertebrae, intervertebral discs, craniofacial morphology, foramen magnum): improvement of many of the affected skeletal elements in ACH
[2]; HCH mandible, non-stabilized fracture
  Effect on defective bone reparation of the callus (summary in words): partially restore the defective bone reparation of the callus, increases the bone volume/total volume without pseudarthrosis
[2]; day 14 post fracture, subcutaneous 4 mg/kg, 3 times per week from day 0, microCT
  Callus volume (ratio TV of the callus/TV of the contralateral ascending ramus region), treated vs untreated HCH mice: unchanged
[2]; day 14 post fracture, subcutaneous 4 mg/kg, 3 times per week from day 0, microCT, p<0.05
  BV/TV (Bone Volume/Total Volume), change in treated vs untreated HCH mice: +20.8%
[2]; [3]
  Complete bone healing (grade 1), mice with this repair grade: 7/10
  Restoration of bone continuity, but presence of mild bone defects (grade 2), mice with this repair grade: 3/10
[2]; day 28 post fracture, subcutaneous 4 mg/kg, 3 times per week from day 0, microCT, p<0.0001
  Callus volume, change in treated vs untreated HCH mice: −38.6%
[2]; day 28 post fracture, subcutaneous 4 mg/kg, 3 times per week from day 0, microCT, p<0.01
  BV/TV (Bone Volume/Total Volume), change in treated vs untreated HCH mice: +17.8%
